Each structure is given as a SMILES string. Where two headings read alike, the source gives them in different places.

The target of experiment [1] is T1, Human cytomegalovirus DNA polymerase (Human cytomegalovirus, UniProt P08546).
T1 construct: made in house; host or cells: SF21 insect cells (baculovirus vector)
The experiment is described as follows: CMV polymerase assay (AlphaLISA). The format is biochemical. The note with it: HCMV polymerase 0.2 nM, 30 min pre-incubation, 60 min at 37° C. The method, then:
Human cytomegalovirus and varicella zoster virus DNA polymerases were expressed via baculovirus vector in SF21 cells and purified. Heterodimeric nucleic acid substrate used in the herpesvirus polymerase reactions was generated by annealing a 59-mer template to a 17-mer digoxigenin-labeled primer. Polymerase (HCMV final concentration of 0.2 nM; VZV final concentration of 0.4 nM) was combined with an inhibitor compound or DMSO in assay buffer (10 mM HEPES, pH 7.5, 25 mM KCl, 25 mM NaCl, 5 mM MgCl2, 5% glycerol, 0.67 mg/ml bovine serum albumin, and 1 mM tris(2-carboxyethyl)phosphine), and this mixture was pre-incubated for 30 minutes at room temperature in 384-well microtiter plates. The polymerization reaction was initiated by the addition of template/primer substrate (final concentration: 1.6 nM), and dNTPs (final concentration: 24 nM dCTP, 24 nMdGTP, 16 nM dATP, 16 nM dTTP, and 0.8 nM biotin-dUTP). After 60 min incubation at 37° C., reactions were terminated with quench buffer (25 mM HEPES pH 7.5, 100 mM NaCl, 0.25% Tween-20, 12 mM EDTA, and 1 mg/ml bovine serum albumin). Incorporation of biotinylated UTP was detected with 2.5-5 ug/ml anti-DIG AlphaLISA acceptor beads and 5-10 ug/ml streptavidin AlphaLISA donor beads (PerkinElmer). Compound effects were normalized to the window defined by the controls (DMSO only and pre-quenched wells) and were fit using a 4-parameter algorithm to report an IC50.
A general note: In Alpha technology, singlet oxygen from a donor bead excites a nearby acceptor bead.

Another experiment has as its system HCMV Strain AD169. In words: Viral qPCR assay, HCMV. It is filed as cell-based, Human cytomegalovirus. The conditions noted are these: MRC-5 cells, 0.05-0.1 pfu/cell, growth media or 50% fetal bovine serum, viral genome copies by qPCR, read-out: CMV Cell (EC50). As for the experimental part: (§1) MRC5 cells, Vero cells, and MeWo cells were obtained from ATCC, and were maintained at 37° C./5% CO2/90% relative humidity in Minimal Essential Medium with 10% fetal bovine serum, […] L-glutamine, 100 units/ml penicillin and 100 ug/ml streptomycin. Assay plates were prepared by dispensing compounds dissolved in DMSO into wells of 384 well collagen-coated plates using an ECHO acoustic dispenser. Each compound was tested in a 10-point, serial 3-fold dilution. Controls included uninfected cells and infected cells treated only with DMSO. Assays were initiated by mixing selected cells, in suspension, with virus, and dispensing 50 μl/well infected cells to pre-plated compounds. Plates were incubated at 37° C./5% CO2/90% relative humidity for ˜72 hrs to permit genomic replication, and infected cells were lysed by the addition of an equal volume of lysis buffer (10 mM Tris-HCl, pH8, 50 mM KCl, 2 mM MgCl2, 0.45% NP-40, 0.45% Tween-20, and 100 μg/ml proteinase K). An aliquot of the lysate was transferred to a 384-well PCR plate and incubated at 56° C. for 1 hour and then at 95° C. for 10 min. Levels of a viral gene and of the cellular control, PPIA (Thermo Fisher Assay ID=Hs04194521_s1), were measured in separate 10 ul qPCR assays using TaqMan® Gene Expression Master Mix (Applied Biosystems), and an 7900HT Fast Real-Time PCR System with 384-Well Block Module. 7-point, serial 10-fold dilutions of a plasmid standard were run on each plate to generate a standard curve, and genome copies numbers were calculated by plotting experimental Ct onto linear regression of the standard curve. Viral genome copy numbers were normalized by cellular control copy number, and compound effects were normalized to the window defined by the controls. Calculated % effects were fit using a 4-parameter algorithm, and EC50 was reported.
(§2) MRC5 cells, Vero cells, and MeWo cells were obtained from ATCC, and were maintained at 37° C./5% CO2/90% relative humidity in Minimal Essential Medium with 10% fetal bovine serum, […] L-glutamine, 100 units/ml penicillin and 100 ug/ml streptomycin. Assay plates were prepared by dispensing compounds dissolved in DMSO into wells of 384 well collagen-coated plates using an ECHO acoustic dispenser. Each compound was tested in a 10-point, serial 3-fold dilution. Controls included uninfected cells and infected cells treated only with DMSO. Assays were initiated by mixing selected cells, in suspension, with virus, and dispensing 50 μl/well infected cells to pre-plated compounds. Plates were incubated at 37° C./5% CO2/90% relative humidity for ˜72 hrs to permit genomic replication, and infected cells were lysed by the addition of an equal volume of lysis buffer (10 mM Tris-HCl, pH 8, 50 mM KCl, 2 mM MgC12, 0.45% NP-40, 0.45% Tween-20, and 100 μg/ml proteinase K). An aliquot of the lysate was transferred to a 384-well PCR plate and incubated at 56° C. for 1 hour and then at 95° C. for 10 min. Levels of a viral gene were measured in 10 ul qPCR assays using TaqMan® Gene Expression Master Mix (Applied Biosystems), and an 7900HT Fast Real-Time PCR System with 384-Well Block Module. 7-point, serial 10-fold dilutions of a plasmid standard were run on each plate to generate a standard curve, and genome copies numbers were calculated by plotting experimental Ct onto linear regression of the standard curve. Compound effects on viral genome copy number were normalized to the window defined by the controls. Calculated % effects were fit using a 4-parameter algorithm, and ECso was reported.
HCMV: Strain AD169 Street was assayed in MRC-5 cells and was used at 0.05-0.1 pfu/cell. The assays were performed in either growth media or in the same media with 50% fetal bovine serum. Primer-probe set was Thermo Fisher Assay ID=AIFATFK.
(In general: In qPCR the cycle at which signal appears reflects the starting amount.)

Another experiment relates to VZV. In words: Viral qPCR assay, VZV. It is filed as cell-based, varicella zoster virus. The note with it: MeWo or MRC5 cells, 0.04-0.1 pfu/cell, growth medium, viral genome copies by qPCR. As for the experimental part:
as §1, §2
VZV: Strain Street was maintained as an infected cell stock in MRC-5 cells. It was assayed in MeWo or MRC5 cells and was used at 0.04-0.1 pfu/cell. The assays were performed in growth medium. Primer-probe set was Thermo Fisher Assay ID=AIPAEXQ.

Another experiment deals with HSV-1 Strain F. The experiment is described as follows: Viral qPCR assay, HSV-1. It is filed as cell-based, Herpes Simplex Virus type 1. The note with it: Vero or MRC5 cells, 0.0005-0.004 pfu/cell, growth medium, viral genome copies by qPCR, read-out: HSV1 Cell (EC50). As for the experimental part: as §1, §2
HSV-1: Strain F […] was assayed in Vero or MRC5 cells and was used at 0.0005-0.004 pfu/cell in growth medium. Primer-probe set was Thermo Fisher Assay ID=AIBJZIB

The mark [2] stands for this setting: Human betaherpesvirus 5, AD169, MRC5, 72 h.

T1 sequence (P08546 whole entry): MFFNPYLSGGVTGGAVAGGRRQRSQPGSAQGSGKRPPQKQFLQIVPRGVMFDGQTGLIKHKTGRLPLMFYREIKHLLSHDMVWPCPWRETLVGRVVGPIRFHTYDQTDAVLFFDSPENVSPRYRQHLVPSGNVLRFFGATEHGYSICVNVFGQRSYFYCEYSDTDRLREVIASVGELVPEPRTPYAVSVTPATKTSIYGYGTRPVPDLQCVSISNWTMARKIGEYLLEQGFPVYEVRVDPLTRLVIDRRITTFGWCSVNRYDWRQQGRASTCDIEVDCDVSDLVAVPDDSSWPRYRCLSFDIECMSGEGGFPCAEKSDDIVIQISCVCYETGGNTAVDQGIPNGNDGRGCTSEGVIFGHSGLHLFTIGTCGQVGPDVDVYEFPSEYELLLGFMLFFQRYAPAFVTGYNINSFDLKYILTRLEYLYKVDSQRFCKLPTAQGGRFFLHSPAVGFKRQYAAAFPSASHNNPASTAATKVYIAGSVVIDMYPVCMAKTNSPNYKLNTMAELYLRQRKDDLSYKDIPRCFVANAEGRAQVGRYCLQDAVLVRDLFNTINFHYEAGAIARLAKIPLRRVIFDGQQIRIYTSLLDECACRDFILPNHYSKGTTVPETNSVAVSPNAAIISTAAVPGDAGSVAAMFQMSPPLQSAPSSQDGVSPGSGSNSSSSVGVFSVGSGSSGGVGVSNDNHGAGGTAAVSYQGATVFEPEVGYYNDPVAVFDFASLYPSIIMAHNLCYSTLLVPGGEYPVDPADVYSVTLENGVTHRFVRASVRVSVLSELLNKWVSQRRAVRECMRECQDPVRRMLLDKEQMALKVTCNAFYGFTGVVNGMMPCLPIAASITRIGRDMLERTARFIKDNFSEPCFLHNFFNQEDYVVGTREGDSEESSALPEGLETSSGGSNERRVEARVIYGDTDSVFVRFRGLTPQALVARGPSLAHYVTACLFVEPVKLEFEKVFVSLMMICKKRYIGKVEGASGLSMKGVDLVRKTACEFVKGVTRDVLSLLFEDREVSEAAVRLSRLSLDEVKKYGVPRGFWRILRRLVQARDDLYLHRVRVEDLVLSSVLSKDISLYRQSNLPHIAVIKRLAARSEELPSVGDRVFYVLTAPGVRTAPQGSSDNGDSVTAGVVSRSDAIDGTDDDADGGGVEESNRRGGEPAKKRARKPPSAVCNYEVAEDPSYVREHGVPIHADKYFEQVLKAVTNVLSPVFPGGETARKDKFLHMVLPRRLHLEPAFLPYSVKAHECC

With `COc1nc(C2CC(O)C2)c(O[C@H]2CCN3C(=O)OC[C@@H]3C2)cc1C(=O)NCc1ccc(Cl)cc1` (single isomer, unassigned) [Compound 74], in experiment [1] (read-out: CMV (IC50)), the IC50 turned out to be 31.6 nM. Moreover, the EC50 in the experiment on HCMV Strain AD169 (setting [2]) amounted to 356 nM; with VZV (Human alphaherpesvirus 3, 72 h), 709 nM; in the experiment on HSV-1 Strain F (Human alphaherpesvirus 1, 72 h), 271 nM.

As to `COc1nc(C2CC2O)c(O[C@H]2CCN3C(=O)OC[C@@H]3C2)cc1C(=O)NCc1ccc(Cl)cc1` (single isomer, unassigned) [Compound 77], in experiment [1] (CMV (IC50)), the IC50 was found to be 31.5 nM. Moreover, the concentration for a half-maximal effect (EC50) in the experiment on HCMV Strain AD169 (~72 hrs) was determined as 872 nM.

In the case of `COc1nc(C2CC2O)c(O[C@H]2CCN3C(=O)OC[C@@H]3C2)cc1C(=O)NCc1ccc(Cl)cc1` (single isomer, unassigned) [Compound 78], in experiment [1] (read-out: CMV (IC50)), the half-inhibitory concentration (IC50) was found to be 49 nM. The half-maximal effective concentration (EC50) in the experiment on HCMV Strain AD169 (~72 hrs) is 616 nM; with VZV (~72 hrs) it was 1850 nM; in the experiment on HSV-1 Strain F (Human alphaherpesvirus 1, 72 h), 644 nM.

Regarding `COc1nc(C2CC2O)c(O[C@H]2CCN3C(=O)OC[C@@H]3C2)cc1C(=O)NCc1ccc(Cl)cc1` (single isomer, unassigned) [Compound 79], the concentration for half-maximal inhibition (IC50) in experiment [1] (read-out: CMV (IC50)) came out at 28.7 nM. The EC50 with HCMV Strain AD169 (~72 hrs) came out at 337 nM; in the experiment with VZV (~72 hrs), 463 nM; in the experiment on HSV-1 Strain F (~72 hrs) it was 518 nM.

In the case of `COc1nc(C2CC2O)c(O[C@H]2CCN3C(=O)OC[C@@H]3C2)cc1C(=O)NCc1ccc(Cl)cc1` (single isomer, unassigned) [Compound 80], the 50% inhibitory concentration (IC50) in experiment [1] (read-out: CMV (IC50)) was 98.9 nM. Moreover, the EC50 in the experiment with HCMV Strain AD169 (~72 hrs) was 3210 nM.

On to `COc1nc(-c2cnn(C(C)(C)C)c2)c(O[C@H]2CCN3C(=O)OC[C@@H]3C2)cc1C(=O)NCc1ccc(Cl)cc1` [Compound 11], for which the IC50 in experiment [1] (read-out: CMV (IC50)) amounted to 20.3 nM. Moreover, the EC50 in the experiment on HCMV Strain AD169 (setting [2]) stood at 653 nM; with VZV (Human alphaherpesvirus 3, 72 h) it was 1270 nM; in the experiment on HSV-1 Strain F (Human alphaherpesvirus 1, 72 h), 456 nM.

As to `COc1nc(-c2cccs2)c(O[C@H]2CCN3C(=O)OC[C@@H]3C2)cc1C(=O)NCc1ccc(Cl)cc1` [Compound 12], the concentration for half-maximal inhibition (IC50) in experiment [1] (read-out: CMV (IC50)) is 9.27 nM. The EC50 in the experiment on HCMV Strain AD169 (setting [2]) was 313 nM; in the experiment with VZV (Human alphaherpesvirus 3, 72 h) it was 235 nM; with HSV-1 Strain F (Human alphaherpesvirus 1, 72 h), 187 nM.

Take `COc1nc(-c2cc[nH]n2)c(O[C@H]2CCN3C(=O)OC[C@@H]3C2)cc1C(=O)NCc1ccc(Cl)cc1` [Compound 18]: the half-inhibitory concentration (IC50) in experiment [1] (read-out: CMV (IC50)) was found to be 19.6 nM. In addition, in the experiment with HCMV Strain AD169 (setting [2]), the EC50 was determined as 1200 nM.

As to `COc1ccc(-c2nc(OC)c(C(=O)NCc3ccc(Cl)cc3)cc2O[C@H]2CCN3C(=O)OC[C@@H]3C2)nc1` [Compound 35], the IC50 in experiment [1] (read-out: CMV (IC50)) turned out to be 79.5 nM. For the same compound, in the experiment with HCMV Strain AD169 (setting [2]), the EC50 is 1940 nM.

Consider `COc1nc(-c2cc(C(F)(F)F)nn2C)c(O[C@H]2CCN3C(=O)OC[C@@H]3C2)cc1C(=O)NCc1ccc(Cl)cc1` [Compound 48], for which, in experiment [1] (read-out: CMV (IC50)), the half-maximal inhibitory concentration (IC50) turned out to be 193 nM. In addition, the half-maximal effective concentration (EC50) in the experiment with HCMV Strain AD169 (setting [2]) was 2010 nM.

Regarding `COc1nc(-c2cccc3cc[nH]c23)c(O[C@H]2CCN3C(=O)OC[C@@H]3C2)cc1C(=O)NCc1ccc(Cl)cc1` [Compound 49], in experiment [1] (read-out: CMV (IC50)), the IC50 was determined as 131 nM. In the experiment with HCMV Strain AD169 (setting [2]), the EC50 stood at 2740 nM.

Regarding `COc1nc(-c2ccc3cc[nH]c3c2)c(O[C@H]2CCN3C(=O)OC[C@@H]3C2)cc1C(=O)NCc1ccc(Cl)cc1` [Compound 50], in experiment [1] (read-out: CMV (IC50)), the IC50 turned out to be 80.7 nM. In the experiment on HCMV Strain AD169 (setting [2]), the EC50 came to 2760 nM.

For `COc1nc(-c2ccnc3[nH]ccc23)c(O[C@H]2CCN3C(=O)OC[C@@H]3C2)cc1C(=O)NCc1ccc(Cl)cc1` [Compound 51], the 50% inhibitory concentration (IC50) in experiment [1] (read-out: CMV (IC50)) came out at 133 nM. Besides, in the experiment with HCMV Strain AD169 (setting [2]), the half-maximal effective concentration (EC50) was determined as 3340 nM.

Regarding `COc1nc(-c2ccccn2)c(O[C@H]2CCN3C(=O)OC[C@@H]3C2)cc1C(=O)NCc1ccc(Cl)cc1` [Compound 52], the half-inhibitory concentration (IC50) in experiment [1] (read-out: CMV (IC50)) was 120 nM. Also, the EC50 with HCMV Strain AD169 (setting [2]) was 3480 nM.

`COc1nccc(-c2nc(OC)c(C(=O)NCc3ccc(Cl)cc3)cc2O[C@H]2CCN3C(=O)OC[C@@H]3C2)n1` [Compound 53]: the 50% inhibitory concentration (IC50) in experiment [1] (read-out: CMV (IC50)) was determined as 164 nM. The EC50 in the experiment on HCMV Strain AD169 (setting [2]) was 3990 nM.

For the compound `COc1nc(-c2cc3cccc(OC)c3[nH]2)c(O[C@H]2CCN3C(=O)OC[C@@H]3C2)cc1C(=O)NCc1ccc(Cl)cc1` [Compound 54], the IC50 in experiment [1] (read-out: CMV (IC50)) worked out at 23.7 nM. For the same compound, the EC50 in the experiment on HCMV Strain AD169 (setting [2]) came out at 5260 nM.

Turning to `COc1nc(N2CC3(C(C)(C)O)CC2C3)c(O[C@H]2CCN3C(=O)OC[C@@H]3C2)cc1C(=O)NCc1ccc(Cl)cc1` [Compound 69], in experiment [1] (read-out: CMV (IC50)), the 50% inhibitory concentration (IC50) was determined as 53.9 nM. Also, the EC50 in the experiment with HCMV Strain AD169 (setting [2]) stood at 1480 nM.

The term IC50 denotes the midpoint of a concentration-inhibition curve. For orientation: EC50 means the midpoint of the concentration-response curve.

(Values after patent US20240083910A1, “AMIDO-SUBSTITUTED PYRIDYL COMPOUNDS AND METHODS OF USE THEREOF FOR THE TREATMENT OF HERPESVIRUSES” (Merck Sharp & Dohme LLC, priority 2020, published 2024).)
